These compounds were tested against BACE (Homo sapiens, UniProt P56817) (assay: Ki Determination for the Inhibition of BACE (FS-1 peptide fluorescence cleavage assay)). Conditions: apparent Ki; 50 nM BACE, 10 μM FS-1 substrate, 0.1M sodium acetate pH 4.5.
Type: biochemical
Description: Compounds were tested against BACE activity using the following modifications of the method described in J. Ermolieff et al. (2000) Biochemistry 39(51):16263.
All compound evaluations were performed in 0.1M sodium acetate (buffer), pH, 4.5, 10 μM substrate (FS-1 peptide as described in the reference above; this is commercially available), varying concentrations of the test compound or control (DMSO to yeild 2% vol/vol), and 50 nM BACE. The assay volume is 100 μL.
Two microliters of the test compound dissolved in DMSO are added to each well in a 96-well microtiter plate. Seventy eight microliters of BACE are mixed with buffer and added to each well then incubated at room temperature for 15 minutes. A stock solution of 50 μM FS-1 substrate was prepared by addition of an aliquot of FS-1 substrate which was dissolved in DMSO to the buffer and mixed well. The reaction is initiated by addition of 20 μL of the FS-1 mix to the remaining, preincubated assay components. The cleavage reaction of substrate to product is measured using a Molecular Devices fluorescence plate reader with the excitation and emission filter pairs of 355 nm and 495 nm, respectively. Apparent Ki values are determined by fitting the data to the integrated equation for competitive tight binding inhibition.

Sequence of BACE (P56817 46-501): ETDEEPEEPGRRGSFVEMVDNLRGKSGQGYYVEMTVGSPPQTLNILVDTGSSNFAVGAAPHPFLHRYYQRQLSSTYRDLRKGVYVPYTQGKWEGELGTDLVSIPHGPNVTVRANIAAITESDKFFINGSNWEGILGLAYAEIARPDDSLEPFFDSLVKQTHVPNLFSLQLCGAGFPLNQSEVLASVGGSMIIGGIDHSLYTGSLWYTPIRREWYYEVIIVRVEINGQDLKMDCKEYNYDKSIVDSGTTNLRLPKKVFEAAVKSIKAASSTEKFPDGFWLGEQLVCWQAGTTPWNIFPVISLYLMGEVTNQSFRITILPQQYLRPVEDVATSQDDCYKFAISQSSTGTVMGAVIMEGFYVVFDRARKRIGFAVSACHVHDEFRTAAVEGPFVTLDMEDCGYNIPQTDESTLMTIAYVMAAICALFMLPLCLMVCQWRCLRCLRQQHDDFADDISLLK

| SMILES | Ki [µM] |
| --- | --- |
| O=C(NCC1CNCCC1c1ccc(COc2ccccc2C(F)(F)F)cc1)Oc1ccc2ccccc2c1 (stereo not drawn) [Compound 228, {4-[4-(2-Trifluoromethyl-phenoxymethyl)-phenyl]-piperidin-3-ylmethyl}-carbamic acid naphthalen-2-yl ester] | < 3 |
| O=C(Nc1cc(C(F)(F)F)c(Cl)cc1N1CCNCC1)c1cccc2ccccc12 [Compound 167, Naphthalene-1-carboxylic acid (4-chloro-2-piperazin-1-yl-5-trifluoromethyl-phenyl)-amide] | > 30 |
| O=C(OCc1ccc(COc2ccccc2C(F)(F)F)cc1C1=CCNCC1)c1ccccc1C(F)(F)F [Compound 314, 2-Trifluoromethyl-benzoic acid 2-(1,2,3,6-tetrahydro-pyridin-4-yl)-4-(2-trifluoromethyl-phenoxymethyl)-benzyl ester] | 3 to 30 |
| O=C(Nc1cc(-c2ccc(F)cc2)ccc1N1CCNCC1)c1cccc2ccccc12 [Compound 103, Naphthalene-1-carboxylic acid (4′-fluoro-4-piperazin-1-yl-biphenyl-3-yl)-amide] | 3 to 30 |
| O=C(NCC1CNCCC1c1ccc(COc2ccccc2C(F)(F)F)cc1)c1ccc2ccccc2c1 (stereo not drawn) [Compound 222, Naphthalene-2-carboxylic acid {4-[4-(2-trifluoromethyl-phenoxymethyl)-phenyl]-piperidin-3-ylmethyl}-amide] | 3 to 30 |
| OCc1cc(C2=CCNCC2)c(COc2ccccc2C(F)(F)F)cc1-c1ccoc1 [Compound 387, [2-Furan-3-yl-5-(1,2,3,6-tetrahydro-pyridin-4-yl)-4-(2-trifluoromethyl-phenoxymethyl)-phenyl]-methanol] | 3 to 30 |
| FC(F)(F)c1ccccc1OCc1ccc(COc2cccc3ccccc23)c(C2=CCNCC2)c1 [Compound 320, 4-[2-(Naphthalen-1-yloxymethyl)-5-(2-trifluoromethyl-phenoxymethyl)-phenyl]-1,2,3,6-tetrahydro-pyridine] | 3 to 30 |
| CCN(CC)S(=O)(=O)c1ccc(-c2ccc(N3CCNCC3)c(NC(=O)c3cccc4ccccc34)c2)cc1 [Compound 145, Naphthalene-1-carboxylic acid (4′-diethylsulfamoyl-4-piperazin-1-yl-biphenyl-3-yl)-amide] | 3 to 30 |
| Cc1cc(N2CCNCC2)c(NC(=O)c2cccc3ccccc23)cc1-c1ccoc1 [Compound 154, Naphthalene-1-carboxylic acid (5-furan-3-yl-4-methyl-2-piperazin-1-yl-phenyl)-amide] | > 30 |
| COC(=O)c1cc(C2=CCNCC2)c(COc2ccccc2C(F)(F)F)cc1-c1ccoc1 [Compound 383, 2-Furan-3-yl-5-(1,2,3,6-tetrahydro-pyridin-4-yl)-4-(2-trifluoromethyl-phenoxymethyl)-benzoic acid methyl ester] | 3 to 30 |
| Nc1cc2ccccc2cc1NC(=O)c1ccc(COc2ccccc2C(F)(F)F)cc1C1=CCNCC1 [Compound 311, N-(3-Amino-naphthalen-2-yl)-2-(1,2,3,6-tetrahydro-pyridin-4-yl)-4-(2-trifluoromethyl-phenoxymethyl)-benzamide] | 3 to 30 |
| O=C(Nc1cc(-c2cccc(Cl)c2)ccc1N1CCNCC1)c1cccc2ccccc12 [Compound 123, Naphthalene-1-carboxylic acid (3′-chloro-4-piperazin-1-yl-biphenyl-3-yl)-amide] | 3 to 30 |
| O=C(OCc1ccc(COc2ccccc2C(F)(F)F)cc1C1=CCNCC1)Oc1cccc2ccccc12 [Compound 318, Carbonic acid naphthalen-1-yl ester 2-(1,2,3,6-tetrahydro-pyridin-4-yl)-4-(2-trifluoromethyl-phenoxymethyl)-benzyl ester] | < 3 |
| O=S(=O)(Nc1cc(-c2ccc(Cl)c(Cl)c2)ccc1N1CCNCC1)c1ccc(-c2ccc(C(F)(F)F)cc2)cc1 [Compound 179, 4′-Trifluoromethyl-biphenyl-4-sulfonic acid (3′,4′-dichloro-4-piperazin-1-yl-biphenyl-3-yl)-amide] | 3 to 30 |
| O=C(Nc1cc(-c2ccccc2)cc(COc2ccccc2C(F)(F)F)c1N1CCNCC1)c1nccc2ccccc12 [Compound 177, Isoquinoline-1-carboxylic acid [4-piperazin-1-yl-5-(2-trifluoromethyl-phenoxymethyl)-biphenyl-3-yl]-amide] | < 3 |
| O=C(Nc1ccccc1)C1CNCCC1c1ccc(COc2ccccc2C(F)(F)F)cc1 (stereo not drawn) [Compound 204] | > 30 |
| O=C(c1cccc2ccccc12)n1c2c(c3cc(OCc4cc(C(F)(F)F)ccc4C(F)(F)F)ccc31)CCNC2 [Compound 517, [6-(2,5-Bis-trifluoromethyl-benzyloxy)-1,2,3,4-tetrahydro-b-carbolin-9-yl]-naphthalen-1-yl-methanone] | < 3 |
| O=C(c1ccc2ccccc2c1)n1c2c(c3cc(OCc4cc(C(F)(F)F)ccc4Cl)ccc31)CCNC2 [Compound 511, [6-(2-Chloro-5-trifluoromethyl-benzyloxy)-1,2,3,4-tetrahydro-b-carbolin-9-yl]-naphthalen-2-yl-methanone] | < 3 |
| CC(C)(C)c1ccc(C(=O)Nc2cc(C(F)(F)F)ccc2N2CCNCC2)cc1 [Compound 117, 4-tert-Butyl-N-(2-piperazin-1-yl-5-trifluoromethyl-phenyl)-benzamide] | > 30 |

The next lines start with the values.

| Ki [µM] | SMILES |
| --- | --- |
| < 3 | O=C(Nc1cc(-c2ccc(S(=O)(=O)NCc3ccccc3)cc2)ccc1N1CCNCC1)c1cccc2ccccc12 [Compound 146, Naphthalene-1-carboxylic acid (4′-benzylsulfamoyl-4-piperazin-1-yl-biphenyl-3-yl)-amide] |
| < 3 | C1=C(c2cc(COc3ccc4ccccc4c3)c(-c3ccccc3)cc2COc2ccc3ccccc3c2)CCNC1 [Compound 307, 4-[2,5-Bis-(naphthalen-2-yloxymethyl)-biphenyl-4-yl]-1,2,3,6-tetrahydro-pyridine] |
| < 3 | O=C(OCc1ccc(COc2ccccc2C(F)(F)F)cc1C1=CCNCC1)Oc1ccc2ccccc2c1 [Compound 319, Carbonic acid naphthalen-2-yl ester 2-(1,2,3,6-tetrahydro-pyridin-4-yl)-4-(2-trifluoromethyl-phenoxymethyl)-benzyl ester] |
| < 3 | CCOC(=O)c1c(C)[nH]c2ccc(OCc3ccc(COc4ccccc4C(F)(F)F)cc3C3=CCNCC3)cc12 [Compound 332, 2-Methyl-5-[2-(1,2,3,6-tetrahydro-pyridin-4-yl)-4-(2-trifluoromethyl-phenoxymethyl)-benzyloxy]-1H-indole-3-carboxylic acid ethyl ester] |
| < 3 | FC(F)(F)c1ccccc1OCc1cc(-c2ccncc2)c(COc2ccccc2C(F)(F)F)cc1C1=CCNCC1 [Compound 341, 4-[4-(1,2,3,6-Tetrahydro-pyridin-4-yl)-2,5-bis-(2-trifluoromethyl-phenoxymethyl)-phenyl]-pyridine] |
| < 3 | COc1cc(COc2ccc3c(c2)c2c(n3C(=O)c3cccc4ccccc34)CNCC2)cc(OC)c1 [Compound 526, [6-(3,5-Dimethoxy-benzyloxy)-1,2,3,4-tetrahydro-b-carbolin-9-yl]-naphthalen-1-yl-methanone] |
| < 3 | N#Cc1ccccc1-c1ccc(COc2ccc3c(c2)c2c(n3Cc3ccc4ccccc4c3)CNCC2)cc1 [Compound 531, 4′-(9-Naphthalen-2-ylmethyl-2,3,4,9-tetrahydro-1H-b-carbolin-6-yloxymethyl)-biphenyl-2-carbonitrile] |
| < 3 | Cc1c(COc2ccc3c(c2)c2c(n3C(=O)c3ccc4ccccc4c3)CNCC2)cccc1C(F)(F)F [Compound 524, [6-(2-Methyl-3-trifluoromethyl-benzyloxy)-1,2,3,4-tetrahydro-b-carbolin-9-yl]-naphthalen-2-yl-methanone] |
| < 3 | COc1cc(COc2ccc3c(c2)c2c(n3Cc3cccc4ccccc34)CNCC2)cc(OC)c1 [Compound 525, 6-(3,5-Dimethoxy-benzyloxy)-9-naphthalen-1-ylmethyl-2,3,4,9-tetrahydro-1H-b-carboline] |
| < 3 | FC(F)(F)c1ccccc1OCc1cc(-c2ccoc2)c(COc2ccccc2C(F)(F)F)cc1C1=CCNCC1 [Compound 343, 4-[4-Furan-3-yl-2,5-bis-(2-trifluoromethyl-phenoxymethyl)-phenyl]-1,2,3,6-tetrahydro-pyridine] |
| < 3 | O=C(Nc1ccc2ccccc2c1)C1CNCCC1c1ccc(-c2ccccc2)cc1 (stereo not drawn) [Compound 402] |
| < 3 | FC(F)(F)c1ccc(OCc2ccc(COc3ccccc3C(F)(F)F)cc2C2=CCNCC2)cc1 [Compound 323, 4-[5-(2-Trifluoromethyl-phenoxymethyl)-2-(4-trifluoromethyl-phenoxymethyl)-phenyl]-1,2,3,6-tetrahydro-pyridine] |
| < 3 | Fc1ccccc1-c1cc(COc2ccccc2C(F)(F)F)c(C2=CCNCC2)cc1COc1ccccc1C(F)(F)F [Compound 347, 4-[2′-Fluoro-2,5-bis-(2-trifluoromethyl-phenoxymethyl)-biphenyl-4-yl]-1,2,3,6-tetrahydro-pyridine] |
| < 3 | FC(F)(F)c1ccc(COc2ccc3c(c2)c2c(n3Cc3ccc4ccccc4c3)CNCC2)cc1 [Compound 534, 9-Naphthalen-2-ylmethyl-6-(4-trifluoromethyl-benzyloxy)-2,3,4,9-tetrahydro-1H-b-carboline] |

Reference: patent US20030095958A1, “Inhibitors of bace” (priority 2001, published 2003)
